For two compounds, IC50 results are on record in patent publication US9770445B2, “Sulfoximine substituted 5-fluoro-N-(pyridin-2-yl)pyridin-2-amine derivatives and their use as CDK9 kinase inhibitors” (BAYER PHARMA AKTIENGESELLSCHAFT, priority 2013, dated 2017).

The experiment concerns the target T1, CDK2/CycE (Homo sapiens, UniProt P24941).
T1 construct: GST; purchased ProQinase GmbH (Freiburg, Germany); host or cells: insect cells (Sf9)
The experiment can be described thus: CDK2/CycE kinase assay (Method 2, TR-FRET). Format: biochemical. The settings on record: Method 2, 10 μM ATP. The source says:
2. CDK2/CycE Kinase Assay:
CDK2/CycE-inhibitory activity of compounds of the present invention was quantified employing the CDK2/CycE TR-FRET assay as described in the following paragraphs:
Recombinant fusion proteins of GST and human CDK2 and of GST and human CycE, expressed in insect cells (Sf9) and purified by Glutathion-Sepharose affinity chromatography, were purchased from ProQinase GmbH (Freiburg, Germany). As substrate for the kinase reaction biotinylated peptide biotin-Ttds-YISPLKSPYKISEG (C-terminus in amid form) was used which can be purchased e.g. form the company JERINI Peptide Technologies (Berlin, Germany).
For the assay 50 nl of a 100 fold concentrated solution of the test compound in DMSO was pipetted into a black low volume 384 well microtiter plate (Greiner Bio-One, Frickenhausen, Germany), 2 μl of a solution of CDK2/CycE in aqueous assay buffer [50 mM Tris/HCl pH 8.0, 10 mM MgCl2, 1.0 mM dithiothreitol, 0.1 mM sodium ortho-vanadate, 0.01% (v/v) Nonidet-P40 (Sigma)] were added and the mixture was incubated for 15 min at 22° C. to allow pre-binding of the test compounds to the enzyme before the start of the kinase reaction. Then the kinase reaction was started by the addition of 3 μl of a solution of adenosine-tri-phosphate (ATP, 16.7 μM=>final conc. in the 5 μl assay volume is 10 μM) and substrate (1.25 μM=>final conc. in the 5 μl assay volume is 0.75 μM) in assay buffer and the resulting mixture was incubated for a reaction time of 25 min at 22° C. The concentration of CDK2/CycE was adjusted depending of the activity of the enzyme lot and was chosen appropriate to have the assay in the linear range, typical concentrations were in the range of 130 ng/mL. The reaction was stopped by the addition of 5 μl of a solution of TR-FRET detection reagents (0.2 μM streptavidine-XL665 [Cisbio Bioassays, Codolet, France] and 1 nM anti-RB(pSer807/pSer811)-antibody from BD Pharmingen [#558389] and 1.2 nM LANCE EU-W1024 labeled anti-mouse IgG antibody [Perkin-Elmer, product no. AD0077]) in an aqueous EDTA-solution (100 mM EDTA, 0.2% (w/v) bovine serum albumin in 100 mM HEPES/NaOH pH 7.0).
The resulting mixture was incubated 1 h at 22° C. to allow the formation of complex between the phosphorylated biotinylated peptide and the detection reagents. Subsequently the amount of phosphorylated substrate was evaluated by measurement of the resonance energy transfer from the Eu-chelate to the streptavidine-XL. Therefore, the fluorescence emissions at 620 nm and 665 nm after excitation at 350 nm was measured in a TR-FRET reader, e.g. a Rubystar (BMG Labtechnologies, Offenburg, Germany) or a Viewlux (Perkin-Elmer). The ratio of the emissions at 665 nm and at […] was taken as the measure for the amount of phosphorylated substrate. The data were normalised (enzyme reaction without inhibitor=0% inhibition, all other assay components but no enzyme=100% inhibition).

Structures are written as SMILES.

With `CS(=N)(=O)Cc1ccnc(Nc2cc(-c3ccc(F)c4ccoc34)c(F)cn2)c1` (single isomer, unassigned; (+)) [Example 14, (+)-5-Fluoro-4-(4-fluoro-1-benzofuran-7-yl)-N-{4-[(S-methylsulfonimidoyl)methyl]pyridin-2-yl}pyridin-2-amine], inhibition was half-maximal at 142 nM (IC50).
`CS(=N)(=O)Cc1ccnc(Nc2cc(-c3ccc(F)c4ccoc34)c(F)cn2)c1` (single isomer, unassigned; (-)) [Example 15, (−)-5-Fluoro-4-(4-fluoro-1-benzofuran-7-yl)-N-{4-[(S-methylsulfonimidoyl)methyl]pyridin-2-yl}pyridin-2-amine]: the IC50 was 121 nM.
